Data reported in PubChem BioAssay AID256 (DTP/NCI, 2004).
Several values for one entry are separate records, joined by “and”; a condition that tells them apart may be missing. Identical values can stand only once. Inconclusive results and toxic doses are left out.

Test system: CD2F1 mice, L1210 leukemia ip, survival T/C
Assay: NCI In Vivo Anticancer Drug Screen. Data for tumor model L1210 Leukemia (intraperitoneal) in CD2F1 (CDF1) mice
Settings: higher = longer survival
Summary of the method: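 Each value reflects a quotient of treated over vehicle control outcomes in mice with a transplanted tumor.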

[1] = endpoint: mean survival time, dose: 100.0 mg/kg/injection, schedule: Q04DX002 (ip), vehicle: saline with Tween-80
[2] = endpoint: mean survival time, dose: 200.0 mg/kg/injection, schedule: Q04DX002 (ip), vehicle: saline with Tween-80
[3] = endpoint: mean survival time, dose: 400.0 mg/kg/injection, schedule: Q04DX002 (ip), vehicle: saline with Tween-80

Nc1ccc(OCc2ccc(C(=O)Nc3cccc(S(=O)(=O)F)c3)cc2)c(Cl)c1
T/C (endpoint: mean survival time, dose: 100.0 mg/kg/injection, schedule: Q01DX009 (ip), vehicle: saline sonified): 91 % of control | T/C (endpoint: mean survival time, dose: 200.0 mg/kg/injection, schedule: Q01DX009 (ip), vehicle: saline sonified): 95 % of control | T/C (endpoint: mean survival time, dose: 400.0 mg/kg/injection, schedule: Q01DX009 (ip), vehicle: saline sonified): 93 % of control

Cc1ccc(S(=O)(=O)O)cc1.Cc1ccc(S(=O)(=O)O)cc1.[NH-]C1CCCCC1[NH-].[Pt+2]
T/C (endpoint: mean survival time, dose: 2.0 mg/kg/injection, schedule: Q04DX003 (ip), vehicle: other): 177 % of control | T/C (endpoint: mean survival time, dose: 4.0 mg/kg/injection, schedule: Q04DX003 (ip), vehicle: other): 255 % of control | T/C (endpoint: mean survival time, dose: 8.0 mg/kg/injection, schedule: Q04DX003 (ip), vehicle: other): 183 % of control

CC(=O)N(C)C
T/C (endpoint: mean survival time, dose: 62.0 mg/kg/injection, schedule: Q01DX Z (ip), vehicle: saline): 92 % of control | T/C (endpoint: mean survival time, dose: 112.0 mg/kg/injection, schedule: Q01DX009 (ip), vehicle: saline): 100 % of control | T/C (endpoint: mean survival time, dose: 122.5 mg/kg/injection, schedule: Q01DX009 (ip), vehicle: saline): 91 % of control | T/C (endpoint: mean survival time, dose: 125.0 mg/kg/injection, schedule: Q01DX Z (ip), vehicle: saline): 96 % of control | T/C (endpoint: mean survival time, dose: 225.0 mg/kg/injection, schedule: Q01DX009 (ip), vehicle: saline): 95 % of control and 97 % of control | T/C (endpoint: mean survival time, dose: 250.0 mg/kg/injection, schedule: Q01DX Z (ip), vehicle: saline): 92 % of control | T/C (endpoint: mean survival time, dose: 450.0 mg/kg/injection, schedule: Q01DX009 (ip), vehicle: saline): 101 % of control and 103 % of control | T/C (endpoint: mean survival time, dose: 500.0 mg/kg/injection, schedule: Q01DX Z (ip), vehicle: saline): 102 % of control | T/C (endpoint: mean survival time, dose: 900.0 mg/kg/injection, schedule: Q01DX009 (ip), vehicle: saline): 89 % of control and 90 % of control | T/C (endpoint: mean survival time, dose: 1800.0 mg/kg/injection, schedule: Q01DX009 (ip), vehicle: saline): 117 % of control and 112 % of control

C=C1CC(C)(Cn2cnc3c(=O)[nH]cnc32)OC1=O (stereo unspecified)
T/C (endpoint: median survival time, dose: 3.13 mg/kg/injection, schedule: Q01DX005 (ip), vehicle: water): 94 % of control | T/C (endpoint: median survival time, dose: 6.25 mg/kg/injection, schedule: Q01DX005 (ip), vehicle: water): 94 % of control | T/C (endpoint: median survival time, dose: 12.5 mg/kg/injection, schedule: Q01DX005 (ip), vehicle: water): 98 % of control | T/C (endpoint: median survival time, dose: 25.0 mg/kg/injection, schedule: Q01DX005 (ip), vehicle: water): 92 % of control

O=C(NN(C(=O)c1ccccc1)c1ccccc1)c1ccccc1
T/C [1]: 100 % of control | T/C [2]: 107 % of control | T/C [3]: 103 % of control

NC1=NC(=O)CC(=O)N1
T/C (endpoint: mean survival time, dose: 100.0 mg/kg/injection, schedule: Q01DX001 (ip), vehicle: saline with Tween-80): 102 % of control | T/C (endpoint: mean survival time, dose: 200.0 mg/kg/injection, schedule: Q01DX001 (ip), vehicle: saline with Tween-80): 103 % of control

CC(C)N1CCOCC1
T/C (endpoint: mean survival time, dose: 100.0 mg/kg/injection, schedule: Q04DX003 (ip), vehicle: acetone): 100 % of control

O=C1C(Cl)=C(NCC2CCC(CO)CC2)C(=O)c2ccccc21 (stereo unspecified)
T/C (endpoint: mean survival time, dose: 6.25 mg/kg/injection, schedule: Q04DX003 (ip), vehicle: saline with Tween-80): 98 % of control | T/C (endpoint: mean survival time, dose: 12.5 mg/kg/injection, schedule: Q04DX003 (ip), vehicle: saline with Tween-80): 97 % of control | T/C (endpoint: mean survival time, dose: 25.0 mg/kg/injection, schedule: Q04DX003 (ip), vehicle: saline with Tween-80): 95 % of control and 98 % of control

CC(C)(O)C#CC(C)(C)OC(O)C(Cl)(Cl)Cl (stereo unspecified)
T/C [1]: 96 % of control | T/C [2]: 101 % of control | T/C [3]: 93 % of control

CN(C)c1ccc(N=Nc2ccc(Cl)c(Cl)c2)cc1
T/C (endpoint: mean survival time, dose: 100.0 mg/kg/injection, schedule: Q04DX003 (ip), vehicle: saline with Tween-80): 98 % of control | T/C (endpoint: mean survival time, dose: 200.0 mg/kg/injection, schedule: Q04DX003 (ip), vehicle: saline with Tween-80): 95 % of control | T/C (endpoint: mean survival time, dose: 400.0 mg/kg/injection, schedule: Q04DX003 (ip), vehicle: saline with Tween-80): 96 % of control

Nc1ccc(N)c(N)c1
T/C (endpoint: mean survival time, dose: 100.0 mg/kg/injection, schedule: Q04DX002 (ip), vehicle: saline): 97 % of control | T/C (endpoint: mean survival time, dose: 200.0 mg/kg/injection, schedule: Q04DX002 (ip), vehicle: saline): 90 % of control | T/C (endpoint: mean survival time, dose: 400.0 mg/kg/injection, schedule: Q04DX002 (ip), vehicle: saline): 97 % of control

CC(=O)NCC(C)OC(C)=O (stereo unspecified)
T/C (endpoint: mean survival time, dose: 100.0 mg/kg/injection, schedule: Q04DX003 (ip), vehicle: saline): 101 % of control | T/C (endpoint: mean survival time, dose: 200.0 mg/kg/injection, schedule: Q04DX003 (ip), vehicle: saline): 97 % of control | T/C (endpoint: mean survival time, dose: 400.0 mg/kg/injection, schedule: Q04DX003 (ip), vehicle: saline): 98 % of control
